Assay results published in patent US20110112103A1, “5-HYDROXYPYRIMIDINE-4-CARBOXAMIDE COMPOUND” (DAIICHI SANKYO COMPANY, LIMITED, priority 2008, published 2011).

Tested on: human liver cancer-derived cell line Hep3B
Experiment: in vitro erythropoietin (EPO) induction activity in Hep3B cells, EPO ELISA of culture supernatant
Format: cell-based
Conditions: test compound 12.5 μM, 24 hours at 37° C., multiple against EPO concentration in control (0.5% DMSO)
Experimental: The in vitro erythropoietin (EPO) induction activity of test compounds was evaluated using human liver cancer-derived cell line Hep3B (ATCC, Manassas, Va.). Hep3B cells were cultured overnight at 37° C. in Dulbecco's Modified Eagle's Medium (DMEM) in the presence of 10% fetal bovine serum (FBS) (24-well plate, 1.0×10^5 cells/well). After replacing with fresh DMEM (+10% FBS) containing a test compound dissolved in 0.5% dimethyl sulfoxide (DMSO) (prepared to a concentration of 12.5 μM) or a solvent control (0.5% DMSO), the cells were cultured for 24 hours at 37° C. After recovering the culture supernatant, EPO concentration in the culture supernatant was quantified using a human EPO ELISA kit (StemCell Technologies). The compounds of Examples 1, 2, 5, 20, 43, 56, 100, 103, 109, 167, 173, 181, 193 and 198 were used for the test compounds. The EPO concentration of each Example was expressed as a multiple against the EPO concentration in the control.

Compound	fold induction at 12.5 µM
Cc1nc(CC2CCN(c3ccc(C(C)(C)C)cc3)CC2)nc(C(=O)NCC(=O)O)c1O [Example 1]	98
Cc1nc(CC2CCN(c3ccccc3)CC2)nc(C(=O)NCC(=O)O)c1O [Example 2, [({5-Hydroxy-6-methyl-2-[(1-phenylpiperidin-4-yl)methyl]pyrimidin-4-yl}carbonyl)amino]acetic acid]	37
Cc1nc(CC2CCN(c3ccc(F)cc3)CC2)nc(C(=O)NCC(=O)O)c1O [Example 5, {[(2-{[1-(4-Fluorophenyl)piperidin-4-yl]methyl}-5-hydroxy-6-methylpyrimidin-4-yl)carbonyl]amino}acetic acid]	29
Cc1nc(CC2CCN(c3ccc(C(F)(F)F)cc3)CC2)nc(C(=O)NCC(=O)O)c1O [Example 20, ({[5-Hydroxy-6-methyl-2-({1-[4-(trifluoromethyl)phenyl]piperidin-4-yl}methyl)pyrimidin-4-yl]carbonyl}amino)acetic acid]	127
Cc1nc(CC2CCN(c3ccc(-c4ccccc4)cc3)CC2)nc(C(=O)NCC(=O)O)c1O [Example 43, {[(2-{[1-(Biphenyl-4-yl)piperidin-4-yl]methyl}-5-hydroxy-6-methylpyrimidin-4-yl)carbonyl]amino}acetic acid]	262
Cc1nc(CC2CCN(c3ccc(Cc4ccccc4)cc3)CC2)nc(C(=O)NCC(=O)O)c1O [Example 56, {[(2-{[1-(4-Benzylphenyl)piperidin-4-yl]methyl}-5-hydroxy-6-methylpyrimidin-4-yl)carbonyl]amino}acetic acid]	158
Cc1nc(CC2CCN(c3ccc(-c4ccccn4)cc3)CC2)nc(C(=O)NCC(=O)O)c1O [Example 100, ({[5-Hydroxy-6-methyl-2-({1-[4-(pyridin-2-yl)phenyl]piperidin-4-yl}methyl)pyrimidin-4-yl]carbonyl}amino)acetic acid]	104
Cc1nc(CC2CCN(c3ccc(-c4cccnc4)cc3)CC2)nc(C(=O)NCC(=O)O)c1O [Example 103, ({[5-Hydroxy-6-methyl-2-({1-[4-(pyridin-3-yl)phenyl]piperidin-4-yl}methyl)pyrimidin-4-yl]carbonyl}amino)acetic acid]	100
Cc1nc(CC2CCN(c3ccc(-c4nccs4)cc3)CC2)nc(C(=O)NCC(=O)O)c1O [Example 109, ({[5-Hydroxy-6-methyl-2-({1-[4-(1,3-thiazol-2-yl)phenyl]piperidin-4-yl}methyl)pyrimidin-4-yl]carbonyl}amino)acetic acid]	142
Cc1nc(CC2=CCN(c3ccc(C(C)(C)C)cc3)CC2)nc(C(=O)NCC(=O)O)c1O [Example 167, {[(2-{[1-(4-tert-Butylphenyl)-1,2,3,6-tetrahydropyridin-4-yl]methyl}-5-hydroxy-6-methylpyrimidin-4-yl)carbonyl]amino}acetic acid]	225
Cc1nc(Cc2ccc(-c3ccc(C(C)(C)C)cc3)nc2)nc(C(=O)NCC(=O)O)c1O [Example 173, {[(2-{[6-(4-tert-Butylphenyl)pyridin-3-yl]methyl}-5-hydroxy-6-methylpyrimidin-4-yl)-carbonyl]amino}acetic acid]	184
Cc1nc(Cc2cnc(-c3ccc(C(C)(C)C)cc3)nc2)nc(C(=O)NCC(=O)O)c1O [Example 181, {[(2-{[2-(4-tert-Butylphenyl)pyrimidin-5-yl]methyl}-5-hydroxy-6-methylpyrimidin-4-yl)-carbonyl]amino}acetic acid]	155
CSc1nc(CC2CCN(c3ccc(C(C)(C)C)cc3)CC2)nc(C(=O)NCC(=O)O)c1O [Example 193, ({[2-{[1-(4-tert-Butylphenyl)piperidin-4-yl]methyl}-5-hydroxy-6-(methylsulfanyl)pyrimidin-4-yl]carbonyl}amino)acetic acid]	147
Cc1nc(C[C@H]2OC[C@H](c3ccc(-c4ccccc4)cc3)CO2)nc(C(=O)NCC(=O)O)c1O [Example 198, {[(2-{[trans-5-(Biphenyl-4-yl)-1,3-dioxan-2-yl]methyl}-5-hydroxy-6-methylpyrimidin-4-yl)-carbonyl]amino}acetic acid]	108

Tested on: not given
Experiment: not given
Conditions: not given

Compound	melting point [°C]
Cc1nc(CC2(C)CCN(c3ccc(F)cc3)CC2)nc(C(=O)NCC(=O)O)c1O [Example 186, {[(2-{[1-(4-Fluorophenyl)-4-methylpiperidin-4-yl]methyl}-5-hydroxy-6-methylpyrimidin-4-yl)carbonyl]amino}acetic acid]	140 to 141
Cc1nc(C[C@H]2OC[C@H](c3ccc(F)cc3)CO2)nc(C(=O)NCC(=O)O)c1O [Example 196, {[(2-{[trans-5-(4-Fluorophenyl)-1,3-dioxan-2-yl]methyl}-5-hydroxy-6-methylpyrimidin-4-yl)carbonyl]amino}acetic acid]	209
